Laboratory results published in ChEMBL document CHEMBL1128646, “The effect of Pyrrolo[3,4-c]carbazole derivatives on spinal cord ChAT activity” (Bioorg Med Chem Lett, 1995).
The source made the active and inactive calls. The calls are words filed in the database; no cut-off is given here.

What was measured:
[1] = target: T1, Choline O-acetyltransferase (Rattus norvegicus) (UniProt P32738); assay: Compound was tested in vitro for choline acetyltransferase (ChAT) activity (maximal ChAT stimulation) in embryonic rat spinal cord cultures at a concentration of 1 uM; format: tissue-based
T1 sequence (whole entry): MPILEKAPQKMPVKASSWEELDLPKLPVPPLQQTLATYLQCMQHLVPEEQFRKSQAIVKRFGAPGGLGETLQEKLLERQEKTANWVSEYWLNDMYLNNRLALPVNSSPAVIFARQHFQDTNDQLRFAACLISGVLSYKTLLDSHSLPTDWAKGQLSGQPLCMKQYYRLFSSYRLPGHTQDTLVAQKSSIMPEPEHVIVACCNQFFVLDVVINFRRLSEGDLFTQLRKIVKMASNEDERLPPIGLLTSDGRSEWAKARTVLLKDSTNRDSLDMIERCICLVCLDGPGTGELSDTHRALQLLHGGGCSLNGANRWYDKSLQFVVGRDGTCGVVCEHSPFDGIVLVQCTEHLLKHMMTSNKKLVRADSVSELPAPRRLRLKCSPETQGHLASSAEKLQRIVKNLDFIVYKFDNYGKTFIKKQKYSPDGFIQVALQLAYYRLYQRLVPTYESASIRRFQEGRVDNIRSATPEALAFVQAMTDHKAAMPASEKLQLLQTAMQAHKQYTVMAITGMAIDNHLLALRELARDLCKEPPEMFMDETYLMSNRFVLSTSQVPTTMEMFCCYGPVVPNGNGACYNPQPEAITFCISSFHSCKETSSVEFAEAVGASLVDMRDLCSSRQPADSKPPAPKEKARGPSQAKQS

[2] = target: T1, Choline O-acetyltransferase (Rattus norvegicus); assay: Compound was tested in vitro for choline acetyltransferase (ChAT) activity (maximal ChAT stimulation) in embryonic rat spinal cord cultures at a concentration of 10 uM; inactive
[3] = target: T1, Choline O-acetyltransferase (Rattus norvegicus); assay: Compound was tested in vitro for choline acetyltransferase (ChAT) activity (maximal ChAT stimulation) in embryonic rat spinal cord cultures at a concentration of 10 uM; format: tissue-based
[4] = target: T1, Choline O-acetyltransferase (Rattus norvegicus); assay: Compound was tested in vitro for choline acetyltransferase (ChAT) activity (maximal ChAT stimulation) in embryonic rat spinal cord cultures at a concentration of 0.300 uM; format: tissue-based
[5] = target: T1, Choline O-acetyltransferase (Rattus norvegicus); assay: Compound was tested in vitro for choline acetyltransferase (ChAT) activity (maximal ChAT stimulation) in embryonic rat spinal cord cultures at a concentration of 10 uM; Inactive; format: tissue-based

O=C1NCc2c(-c3ccccc3)cc3[nH]c4ccc(Br)cc4c3c21
Control [1]: 146%

CC(C)(C)OC(=O)/C=C/c1ccc2[nH]c3cc(-c4ccccc4)c4c(c3c2c1)C(=O)NC4
Control [2]: inactive

O=C1NCc2c(-c3ccccc3)cc3[nH]c4ccccc4c3c21
Control [3]: 167%

COC(=O)[C@]1(O)C[C@@H]2O[C@@]1(C)n1c3ccccc3c3c4c(c5c6ccccc6n2c5c31)C(=O)NC4
Control [4]: 186%

Cn1c2ccccc2c2c3c(c(-c4ccccc4)cc21)CNC3=O
Control [3]: 159%

O=C1NCc2c(-c3ccccc3)cc3[nH]c4ccc(/C=C/c5ccccc5)cc4c3c21
Control [2]: inactive

O=C1NCc2c1c(-c1ccccc1)cc1[nH]c3ccccc3c21
Control [2]: inactive

CN1Cc2c(-c3ccccc3)cc3c(c2C1=O)c1ccccc1n3C
Control [5]: inactive

O=C1NCc2c1c1c3ccccc3[nH]c1c1[nH]c3ccccc3c21
Control [1]: 162%
